Bounds are passed on as bounds.

One data set deals with SARS-COV2 Mpro (Severe acute respiratory syndrome coronavirus 2 (2019-nCoV) (SARS-CoV-2), UniProt P0DTD1). Description: COVID-19 (nCoV-2019, SARS-CoV2) Mpro enzymatic assay. Type of data set: biochemical. The conditions noted are these: 25 nM Mpro, 25 μM substrate.
Another data set concerns the target 229E mPRO (Human coronavirus 229E (HCoV-229E), UniProt P0C6X1). The data set is described as follows: 229E mPRO enzymatic assay. The format is biochemical, Human Coronavirus (HCov) 229E. The conditions noted are these: read-out: 229E mPRO IC50.
The nature of data set [1]: Cytotoxicity under 229E CPE assay conditions without virus infection (CellTiter Glo). On the technique in general: ATP-based viability assays read luminescence as a measure of living cells.
Another data set deals with HCoV 229E. Description: HCoV 229E cytopathic effect (CPE) assay. Type of data set: cell-based, Human Coronavirus (HCov) 229E. The conditions noted are these: unidentified human coronavirus, CellTiter Glo, read-out: 229 ECPE EC50. As for the experimental part: Compounds were assayed using standard methods against multiple coronaviral strains, including HCoV 229E and OC43 strains. The antiviral activity of compounds was calculated based on the protection of the virus-induced CPE at each concentration normalized by the virus control.
Cytopathic effect (CPE) was measured by CellTiter Glo following the manufacturer's manual. The antiviral activity of compounds was calculated based on the protection of the virus-induced CPE at each concentration normalized by the virus control.
(In general: Cytopathic effects are the visible damage that an infection or toxin causes in cultured cells.)

Chain of 229E mPRO (P0C6X1 2966-3267 limits assumed): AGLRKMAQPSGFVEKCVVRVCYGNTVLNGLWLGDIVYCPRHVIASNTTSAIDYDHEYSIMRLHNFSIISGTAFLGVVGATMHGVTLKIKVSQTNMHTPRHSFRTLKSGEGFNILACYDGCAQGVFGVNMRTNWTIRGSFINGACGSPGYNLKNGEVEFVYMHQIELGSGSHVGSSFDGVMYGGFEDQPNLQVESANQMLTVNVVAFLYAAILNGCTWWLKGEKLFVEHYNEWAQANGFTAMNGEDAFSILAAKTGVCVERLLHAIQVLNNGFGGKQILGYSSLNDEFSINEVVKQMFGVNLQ
Experimental for 229E mPRO: Compounds were assayed using standard methods to assess compound activity and IC50. […] The assay buffer contained 20 mM of Tris-HCl (pH 7.3), 100 mM of NaCl, 1 mM of EDTA, 5 mM of TCEP and 0.1% BSA.
The compounds were added to an assay plate.
IC50 values of compounds were calculated with the GraphPad Prism software using the nonlinear regression model of log(inhibitor) vs. response—Variable slope (four parameters). The inhibition activity was calculated using the formula below, IC50 values was calculated using the Inhibition % data. Inhibition %=[(Sample−Average ZPE)/(Average HPE−Average ZPE)]*100%^# • ^#HEP: Hundred percent effect controls. […] Containing enzyme+substrate, no compound. • Sample: Compound activity testing wells. Containing compound+enzyme+substrate. • BG: Compound background control wells. Containing compound+substrate, no enzyme.

Regarding `COc1cccc2[nH]c(C(=O)N[C@@H](CC(C)C)C(=O)N[C@@H](C#N)Cc3cc(=O)[nH]c4ccccc34)cc12` (mixture of isomers) [Compound 237], the IC50 at SARS-COV2 Mpro and at 229E mPRO was over 30 µM throughout.

For the compound `COc1cccc2[nH]c(C(=O)N[C@@H](CC(C)C)C(=O)N[C@H](C#N)Cc3cc[nH]n3)cc12` (mixture of isomers) [Compound 241], the IC50 against SARS-COV2 Mpro and at 229E mPRO was over 30 µM throughout.

With `CC(C)CC(NC(=O)c1nc2ncccc2[nH]1)C(=O)NC(C#N)CC1CCNC1=O` (single isomer, unassigned) [130 (Isomer 1)], the CC50 in data set [1] was over 30 µM.

With `CC(C)(C)OC(=O)N1CCCCC12CCN([C@@H](CC1CC1)C(=O)N[C@H](C#N)C[C@@H]1CCNC1=O)C2=O` (single isomer, unassigned) [473 (Isomer 2)], the IC50 at SARS-COV2 Mpro and at 229E mPRO was over 30 µM throughout.

With `COc1cccc2[nH]c(C(=O)N[C@@H](CC3CC3)C(=O)N[C@@]3(C#N)CC4CCC3[C@H]3C(=O)NC(=O)[C@@H]43)cc12` (single isomer, unassigned) [489 (Isomer 1)], the IC50 against SARS-COV2 Mpro and at 229E mPRO was over 30 µM in each case.

As for `N#CC1(NC(=O)[C@H](CC2CC2)NC(=O)OCc2ccccc2)C[C@H]2CC[C@@H]1[C@H]1C(=O)NC(=O)[C@@H]21` (single isomer, unassigned) [495 (Isomer 1)], the IC50 against SARS-COV2 Mpro and at 229E mPRO was over 30 µM in each case.

As to `COc1cccc2[nH]c(C(=O)N3CC4(CCC4)CC3C(=O)N[C@H](C#N)C[C@@H]3CCCNC3=O)cc12` (single isomer, unassigned) [719 (Isomer 2)], the IC50 against SARS-COV2 Mpro and at 229E mPRO was under 22 µM each time. Also, the EC50 (usually the midpoint of the concentration-response curve) with HCoV 229E is under 22 µM.

As to `COc1cccc2[nH]c(C(=O)N[C@@H](CC(C)C)C(=O)N[C@@H](C[C@@H]3CCNC3=O)C(O)C#N)cc12` (stereo partly drawn) [Compound 135, N-[(1S)-1-[[(1S)-2-cyano-2-hydroxy-1-[[(3S)-2-oxopyrrolidin-3-yl]methyl]ethyl]carbamoyl]-3-methyl-butyl]-4-methoxy-1H-indole-2-carboxamide], the CC50 in “in vitro” was over 30 µM. Besides, the EC50 with HCoV 229E is under 22 µM.

Turning to `COc1cccc2[nH]c(C(=O)N3CC(c4ccccc4)CC3C(=O)NC(C#N)CC3CCNC3=O)cc12` (stereo not drawn) [Compound 170], the CC50 in “in vitro” was over 30 µM.

As for `COc1cccc2[nH]c(C(=O)N[C@@H](CC(C)C)C(=O)N[C@H](C#N)Cc3cncn3C)cc12` [Compound 225, N-[(1S)-1-[[(1S)-1-cyano-2-(3-methylimidazol-4-yl)ethyl]carbamoyl]-3-methyl-butyl]-4-methoxy-1H-indole-2-carboxamide], the IC50 against SARS-COV2 Mpro and at 229E mPRO was over 30 µM each time.

Regarding `N#C[C@H](C[C@@H]1CCNC1=O)NC(=O)[C@H](CC1CC1)n1ccc2[nH]cnc2c1=O` [Compound 269], the IC50 on SARS-COV2 Mpro and at 229E mPRO was over 30 µM throughout.

On to `COc1cccc2[nH]c(C(=O)N[C@@H](CC3CC3)C(=O)N[C@@]3(C#N)CCc4cccnc4C3)cc12` [Compound 279], for which the IC50 at SARS-COV2 Mpro and on 229E mPRO was over 30 µM each time.

With `COc1cccc2[nH]c(C(=O)N[C@@H](CC(C)C)C(=O)N[C@@H](C[C@@H]3CCNC3=O)C(C#N)Nc3ccccc3)cc12` (stereo partly drawn) [Compound 327], the IC50 at SARS-COV2 Mpro and at 229E mPRO was under 22 µM in each case. The half-maximal effective concentration (EC50) with HCoV 229E lay within 2 to 10 µM.

Turning to `CC[C@H]1CN(C(=O)c2cc3c(OC)cccc3[nH]2)[C@@H]1C(=O)N[C@H](C#N)C[C@@H]1CCNC1=O` [Compound 391], the concentration for half-maximal inhibition (IC50) on SARS-COV2 Mpro and at 229E mPRO was over 30 µM throughout.

For `COc1cccc2[nH]c(C(=O)N[C@@H](CC(C)C)C(=O)N[C@H](C#N)Cc3ccccn3)cc12` [Compound 439], the IC50 (in general, the concentration needed to halve the response being measured) against SARS-COV2 Mpro was 10 to 30 µM; on 229E mPRO, over 30 µM.

As to `N#C[C@H](C[C@@H]1CCNC1=O)NC(=O)[C@@H]1CS[C@H]2CC[C@H](N)C(=O)N21` [Compound 479], the half-inhibitory concentration (IC50) against SARS-COV2 Mpro was over 30 µM; at 229E mPRO it was 10 to 30 µM.

Turning to `N#C[C@H](C[C@@H]1CCNC1=O)NC(=O)[C@@H]1CCc2ccc(NCC(=O)Oc3ccccc3)c(=O)n21` [Compound 483], the IC50 against SARS-COV2 Mpro and on 229E mPRO was over 30 µM throughout.

Take `N#C[C@H](C[C@@H]1CCNC1=O)NC(=O)[C@@H]1CCc2ccc(NCC(=O)O)c(=O)n21` [Compound 501]: the IC50 against SARS-COV2 Mpro and on 229E mPRO was over 30 µM throughout.

As for `COc1nccc2[nH]c(C(=O)N[C@@H](CC3CC3)C(=O)N[C@H](C#N)C[C@@H]3CCCNC3=O)cc12` [Compound 623], the IC50 against SARS-COV2 Mpro and at 229E mPRO was over 30 µM throughout.

As to `COc1cccc2[nH]c(C(=O)N[C@@H](CC(C)(C)C)C(=O)N[C@H](C#N)C[C@@H]3CCCNC3=O)cc12` [Compound 643, N-[(1S)-1-[[(1S)-1-cyano-2-[(3S)-2-oxo-3-piperidyl]ethyl]carbamoyl]-3,3-dimethyl-butyl]-4-methoxy-1H-indole-2-carboxamide], the IC50 on 229E mPRO is under 22 µM. In the data set on HCoV 229E, the EC50 was under 22 µM.

For the compound `COc1cccc2[nH]c(C(=O)N[C@@H](CC(C)C)C(=O)N[C@@H](C[C@@H]3CCNC3=O)C(C#N)NCC(=O)O)cc12` (stereo partly drawn) [Compound 653], the IC50 against SARS-COV2 Mpro and at 229E mPRO was under 22 µM each time. In addition, the EC50 in the data set on HCoV 229E was under 22 µM.

Consider `COc1cccc2[nH]c(C(=O)N[C@H](CN[C@H](C#N)C[C@@H]3CCNC3=O)CC(C)(C)C)cc12` [Compound 659], for which the half-maximal inhibitory concentration (IC50) on SARS-COV2 Mpro and at 229E mPRO was over 30 µM in each case.

(Values after US11124497B1, “Inhibitors of cysteine proteases and methods of use thereof” (priority 2020, dated 2021).)
